13 compounds from PubChem BioAssay (NCI) can be followed below.

The structures appear in SMILES notation.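 All cell lines were grown in 96-well plates and treated with compound for 48 hours. TGI denotes the concentration required for complete inhibition of growth.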

Among the test systems are DLD-1 colon; HOP-18 NSCLC; M19-MEL melanoma; SNB-78 CNS; KM20L2 colon; RXF-631 renal; XF 498 CNS.
What all share (test): DTP human tumour cell line panel, 48 h

What is called TGI is the concentration at which net growth stops. On to `O=S(=O)(c1ccccc1)n1cnc(CCc2ccccc2)n1`, for which the TGI in the test on DLD-1 colon, in the test with HOP-18 NSCLC, in the test with M19-MEL melanoma, in the test on SNB-78 CNS and with KM20L2 colon was above 100 µM each time.
As for `COC(=O)NN/C=C(\C=Nc1ccccc1)[N+](=O)[O-]`, the TGI with DLD-1 colon, in the test on HOP-18 NSCLC, in the test with RXF-631 renal, with M19-MEL melanoma, in the test on KM20L2 colon and in the test with XF 498 CNS was above 100 µM in each case.
Regarding `CCOC(=O)c1ncn2c1[nH]c(=O)c1ccccc12`, the TGI in the test on M19-MEL melanoma, in the test with SNB-78 CNS, in the test on KM20L2 colon and in the test with XF 498 CNS was above 100 µM throughout.
Take `C=C(C)C1Cc2c(cc(OC)c3c(=O)c4ccccc4n(C)c23)O1` (stereo not drawn): the TGI with DLD-1 colon, with HOP-18 NSCLC, in the test with M19-MEL melanoma, in the test with SNB-78 CNS, in the test on KM20L2 colon and with XF 498 CNS was above 100 µM each time.
In the case of `CC1(Br)S(=O)(=O)OCCOS1(=O)=O`, the TGI with DLD-1 colon, in the test on M19-MEL melanoma, with SNB-78 CNS, with KM20L2 colon and with XF 498 CNS was above 100 µM each time.
`CC(=O)C(CN(C)Cc1ccccc1)C(c1ccccc1)c1c(O)c2ccccc2oc1=O` (stereo not drawn): the TGI in the test with DLD-1 colon, with M19-MEL melanoma, in the test with SNB-78 CNS and with KM20L2 colon was above 100 µM each time.
As to `OC1=CN=C(C2CC2)Oc2ccccc21`, the TGI in the test on DLD-1 colon, with M19-MEL melanoma, with SNB-78 CNS and in the test on KM20L2 colon was above 100 µM throughout.
For the compound `CC(C)(C)c1cc(Oc2ccc(C#N)c(C#N)c2)cc(C(C)(C)C)c1`, the TGI with DLD-1 colon, in the test on HOP-18 NSCLC, in the test with RXF-631 renal, in the test with M19-MEL melanoma, in the test with SNB-78 CNS and with KM20L2 colon was above 100 µM in each case. The compound further returned a TGI in the test with XF 498 CNS above 100 µM.
With `O=C(Cc1nc2ccc(C(=O)c3ccccc3)cc2[nH]c1=O)C(=O)Nc1ccc(C(F)(F)F)cc1[N+](=O)[O-]`, the TGI in the test with DLD-1 colon, in the test on HOP-18 NSCLC, in the test with RXF-631 renal, in the test on M19-MEL melanoma, in the test on SNB-78 CNS and with KM20L2 colon was above 100 µM throughout. For the same compound, the TGI in the test on XF 498 CNS was above 100 µM.
For `COc1ccccc1NC(=O)CC(=O)n1nc(-c2ccccc2)c(N=Nc2ccccc2[N+](=O)[O-])c1-c1ccccc1`, the TGI with DLD-1 colon, in the test with HOP-18 NSCLC, in the test on RXF-631 renal, with M19-MEL melanoma, with SNB-78 CNS and in the test on KM20L2 colon was above 100 µM each time. Moreover, the TGI in the test with XF 498 CNS was above 100 µM.
Consider `Cc1ccc(S(=O)(=O)C(C#N)c2nc3ccccc3nc2N2CCOCC2)cc1` (stereo not drawn), for which the TGI was 93.1 µM in the test with DLD-1 colon; 81.6 µM in the test with M19-MEL melanoma; 15.9 µM with SNB-78 CNS; above 100 µM in the test on KM20L2 colon; 81.7 µM in the test on XF 498 CNS.
As to `C=CC(Br)(CBr)CCC(Br)C(C)(C)Br` (stereo not drawn), the TGI worked out at 33.4 µM with DLD-1 colon, 28.9 µM in the test on HOP-18 NSCLC, 27.4 µM in the test with M19-MEL melanoma and 19.6 µM with SNB-78 CNS.
Regarding `Cc1no[n+]([O-])c1/C=N/NS(=O)(=O)c1ccccc1`, the TGI in the test with DLD-1 colon, with HOP-18 NSCLC, in the test on M19-MEL melanoma and in the test on KM20L2 colon was above 100 µM throughout.
